# Reference: article PMC3436903 (Chembiochem : a European journal of chemical biology, 2011)
# Assay: pH-dependence of keto acid-lactol equilibrium by 1H-NMR in D2O
# Format: physicochemical
structure (smiles),measurement,setting,value
Nc1ncnc2c1ncn2[C@@H]1O[C@H](CNS(=O)(=O)NC(=O)CCC(=O)c2ccccc2C(=O)O)[C@@H](O)[C@H]1O [Inhibitor 5],pD range of rapid equilibration of keto acid and lactol forms,intermediate chemical shifts,1.32–4.32 pD
same,pD at which the lactol form is observed,ketone α-protons at ≈2.45 ppm,0.89 pD
same,pD at which the keto acid form is observed,ketone α-protons at ≈3.2 ppm,≥ 5.70 pD
